Measured values taken from patent publication US20210330606A1, “GLUCOSE CONSUMPTION ACCELERATOR AND GLYCOLYSIS ACCELERATOR” (SHINKO SANGYO Co., Ltd., priority 2018, published 2021).

Tests used:
[1] = tested on: Rat-derived fibroblasts (Py-3Y1-S2, subculture strain); assay: Glucose consumption of rat-derived fibroblasts (relative value, control = 100); format: cell-based
Text: As drugs, 2-amino-1-cyclohexylethanol (Matrix Biochemicals), 2-aminoethanol (Tokyo Chemical Industry Co., Ltd.), 1-amino-2-propanol (Wako Pure Chemical Industries, Ltd.), 2-amino-1-phenylethanol (Tokyo Chemical Industry Co., Ltd.), 1, 3-bis[tris(hydroxymethyl)-methylamino]propane (Tokyo Chemical Industry Co., Ltd.), N-cyclohexylethanolamine (Tokyo Chemical Industry Co., Ltd.), diethanolamine (Wako Pure Chemical Industries, Ltd.), diethylamine (Wako Pure Chemical Industries, Ltd.), dipropylamine (Tokyo Chemical Industry Co., Ltd.), HEPES sodium salt (MP Biomedicals), metoprolol tartrate (Tokyo Chemical Industry Co., Ltd.), morpholine (Wako Pure Chemical Co., Ltd.), octopamine (MP Biomedicals), propylamine (Tokyo Chemical Industry Co., Ltd.), triethylamine (Wako Pure Chemical Co., Ltd.), timolol maleate (Wako Pure Chemical Industries, Ltd.) and tris(hydroxymethyl)aminomethane (Wako Pure Chemical Industries, Ltd.) were used. Each drug was dissolved in distilled water to prepare a sample.
In the culture, DMEM (Nissui Pharmaceutical Co., Ltd.) was used as a culture medium. […] As a control of the drug, the culture was performed in the same manner except that distilled water to which the drug was not added was added to the culture solution instead of the sample.
After the addition of the drug, the glucose concentration of each of the culture solutions was measured immediately after the start of the culture and after the completion of the culture. The glucose concentration was measured using a glucose assay kit (Waco). Then, the glucose concentration after the completion of the culture was divided by the glucose concentration immediately after the start of the culture (5.6 mmol per liter) to calculate the glucose consumption.
The fibroblasts were cultured. […] Streptozotocin, alloxan, and nicotinamide are drugs all known to produce symptoms of diabetes when administered to the body.
Next, samples of streptozotocin, alloxan, and nicotinamide plus 2-amino-1-phenylethanol (2-A-1-P) were prepared in the same manner. The concentration of 2-A-1-P was 1 mg/ml. The relative value of the glucose consumption was calculated in the same manner.
The fibroblasts were cultured.
The concentration of 2-A-1-P was 0.5 mg/ml. The relative value of the glucose consumption was calculated in the same manner.

[2] = tested on: Rat-derived fibroblasts (Py-3Y1-S2, subculture strain); assay: Lactate concentration in culture solution of fibroblasts (relative value, control = 100); format: cell-based; conditions: drug 1 mg/ml, control = 100 (FIG. 7A)
Protocol: (§1) First, samples of 2-amino-1-cyclohexylethanol and 2-amino-1-phenylethanol were prepared in the same manner as in Example 1. The fibroblasts and the liver cancer cells were cultured under the same conditions as in Examples 1 and 5. […] As a control, the culture was performed in the same manner except that distilled water to which the drug was not added was added to the culture solution instead of the sample.
(§2) After the addition of the drug, the culture solution was diluted so that the weight ratio of the culture solution to distilled water was 1:19, and the lactate concentration of the diluted culture solution was measured. The lactate concentration was measured using a lactate assay kit (product name: Lactate Assay Kit-WST, product of Dojindo Laboratories).

[3] = tested on: rat-derived liver cancer cells (Ry121B, subculture line); assay: Lactate concentration in culture solution of liver cancer cells (relative value, control = 100); format: cell-based; conditions: drug 1 mg/ml, control = 100 (FIG. 7B)
Protocol: as §1, §2

[4] = tested on: Py-3Y1-S2, TE-13, VERO and HepG2 cells; assay: Lactate concentration after 24 to 48 hours culture, mean over four cell types (Example 8); format: cell-based, rat, human, African green monkey; conditions: drug 0.5 mg/ml, mean of five experiments in four cell types
Protocol: as §2
First, a sample of 2-amino-1-cyclohexylethanol (2-amino-1-cyclohexyl EOH) was prepared in the same manner as in Example 1. In addition to the rat-derived fibroblasts (Py-3Y1-S2, subculture line), human-derived esophageal cancer cells (TE-13, subculture line), African green monkey-derived kidney epithelial cells (VERO, subculture line), and human-derived hepatocellular cancer cells (HepG2, subculture line) were used and cultured under the same conditions as in Example 1. […] Thereafter, the culture solutions were further cultured for 24 to 48 hours. The culture time after the addition of the sample was set to the same condition for each cell. As a control 1, the culture was performed in the same manner except that distilled water to which the drug was not added was added to the culture solution instead of the sample. […] Then, the lactate concentration in each sample was measured in the same manner as in Example 6. […]

[5] = tested on: Py-3Y1-S2, TE-13, VERO and HepG2 cells; assay: Lactate concentration after 2 to 3 days culture, lactate metabolism, mean over four cell types (Example 9); format: cell-based, rat, human, African green monkey
Protocol: as §2
First, samples of 2-amino-1-cyclohexylethanol (2-amino-1-cyclohexyl EOH) and 2-amino-1-phenylethanol (2-amino-1-phenyl EOH) were prepared in the same manner as in Example 1. Four types of cells were used as in Example 8, and each of the cells was cultured under the same conditions as in Example 1. […] Thereafter, the culture time was lengthened to 2 to 3 days (48 to 72 hours) compared to Example 8. As a control 1, the culture was performed in the same manner except that distilled water to which the drug was not added was added to the culture solution instead of the sample. As a control 2, the culture was performed in the same manner as the […] except that a sample of biguanide prepared in the same manner as in Example 1 was added to the culture solution instead of the sample. Then, the lactate concentration in each sample was measured in the same manner as in Example 6. Each of the four cells was used for a total of four experiments.

[6] = tested on: rat-derived liver cancer cells (Ry121B, subculture line); conditions: drug 1 mg/ml, control = 100
[7] = Example 3, fibroblasts, drug alone 1 mg/ml, control = 100
[8] = fibroblasts, drug 1 mg/ml, 12 to 24 hours, control = 100 (FIG. 1B, 2B)
[9] = fibroblasts, drug 0.5 mg/ml, 12 to 24 hours, control = 100 (FIG. 1A, 2A)

Compound: CN(N=O)C(=O)N[C@H]1C(O)O[C@H](CO)[C@@H](O)[C@@H]1O (mixture of isomers) [streptozotocin, reference compound]
- relative value of glucose consumption [1, 7]: about 90

Compound: OCC(CO)(CO)NCCCNC(CO)(CO)CO [1,3-bis[tris(hydroxymethyl)methylamino]propane]
- relative value of glucose consumption [1, 8]: significantly increased glucose consumption

Compound: CC(O)CN (stereo not shown) [1-amino-2-propanol]
- relative value of glucose consumption [1, 9]: significantly increased glucose consumption

Compound: NCC(O)C1CCCCC1 (stereo not shown) [2-amino-1-cyclohexylethanol]
- relative value of glucose consumption ([1]; Example 2, fibroblasts, drug 0.1 mg/ml, control = 100): about 120
- relative value of glucose consumption ([1]; Example 2, fibroblasts, drug 0.25 mg/ml, control = 100): about 130
- relative value of glucose consumption ([1]; Example 2, fibroblasts, drug 0.5 mg/ml, control = 100): about 150
- relative value of glucose consumption [1, 9]: significantly increased glucose consumption
- relative value of glucose consumption [1, 8]: significantly increased glucose consumption
- relative value of lactate concentration [2]: about 145
- relative value of lactate concentration [3]: about 140
- lactate concentration in the culture solution [4]: 9.35 mmol/L
- lactate concentration in the culture solution compared to control 1 ([5]; drug 0.5 mg/ml, 2 to 3 days (48 to 72 hours) culture, mean of four experiments): equivalent to that of control 1
- relative value of glucose consumption [6]: about 145

Compound: NCCO [2-aminoethanol]
- relative value of glucose consumption [1, 9]: significantly increased glucose consumption
- relative value of glucose consumption [1, 8]: significantly increased glucose consumption

Compound: O=S(=O)([O-])CCN1CCN(CCO)CC1.[Na+] [HEPES sodium salt]
- relative value of glucose consumption [1, 9]: significantly increased glucose consumption
- relative value of glucose consumption [1, 8]: significantly increased glucose consumption

Compound: OCCNC1CCCCC1 [N-cyclohexylethanolamine]
- relative value of glucose consumption [1, 9]: significantly increased glucose consumption
- relative value of glucose consumption [1, 8]: significantly increased glucose consumption

Compound: [O]=[V](=[O])[O][V](=[O])=[O] [V2O5, reference compound]
- relative value of glucose consumption ([1]; Example 4, fibroblasts, drug alone, vanadium final concentration 1.0 mg/ml (V2O5 not printed separately)): about 115

Compound: O=C1NC(=O)C(=O)C(=O)N1 [alloxan, reference compound]
- relative value of glucose consumption [1, 7]: about 70

Compound: N=C(N)NC(=N)N [biguanide, reference compound]
- lactate concentration in the culture solution [4]: increased the lactate concentration
- lactate concentration relative to Control 1 ([5]; 2 to 3 days culture after addition of biguanide, P<0.05): about 3.5 times

Compound: OCCNCCO [diethanolamine]
- relative value of glucose consumption [1, 9]: significantly increased glucose consumption
- relative value of glucose consumption [1, 8]: significantly increased glucose consumption

Compound: CCNCC [diethylamine]
- relative value of glucose consumption [1, 9]: significantly increased glucose consumption
- relative value of glucose consumption [1, 8]: significantly increased glucose consumption

Compound: CCCNCCC [dipropylamine]
- relative value of glucose consumption [1, 9]: significantly increased glucose consumption
- relative value of glucose consumption [1, 8]: significantly increased glucose consumption

Compound: COCCc1ccc(OCC(O)CNC(C)C)cc1.COCCc1ccc(OCC(O)CNC(C)C)cc1.O=C(O)C(O)C(O)C(=O)O (stereo not shown) [metoprolol tartrate, reference compound]
- relative value of glucose consumption [1, 9]: significantly increased glucose consumption
- relative value of glucose consumption [1, 8]: significantly increased glucose consumption

Compound: C1COCCN1 [morpholine]
- relative value of glucose consumption [1, 9]: significantly increased glucose consumption
- relative value of glucose consumption [1, 8]: significantly increased glucose consumption

Compound: NC(=O)c1cccnc1 [nicotinamide, reference compound]
- relative value of glucose consumption [1, 7]: about 85

Compound: CCCN [propylamine]
- relative value of glucose consumption [1, 9]: significantly increased glucose consumption
- relative value of glucose consumption [1, 8]: significantly increased glucose consumption

Compound: CC(C)(C)NC[C@H](O)COc1nsnc1N1CCOCC1.O=C(O)/C=C\C(=O)O [timolol maleate, reference compound]
- relative value of glucose consumption [1, 9]: significantly increased glucose consumption
- relative value of glucose consumption [1, 8]: significantly increased glucose consumption

Compound: CCN(CC)CC [triethylamine]
- relative value of glucose consumption [1, 9]: significantly increased glucose consumption
- relative value of glucose consumption [1, 8]: significantly increased glucose consumption

Compound: concanavalin A [reference compound]
- relative value of glucose consumption ([1]; Example 4, fibroblasts, ConA alone 100 μg/ml): about 120

Compound: tris(hydroxymethyl)aminomethane
- relative value of glucose consumption [1, 9]: significantly increased glucose consumption
- relative value of glucose consumption [1, 8]: significantly increased glucose consumption
